# System: HBV
# Assay: HBV-DNA antiviral assay using HepG2.117 cells (intracellular HBV DNA by qPCR)
# Assay type: cell-based, HBV genotype D
# Settings: HBV DNA inhibition, 3 days incubation, read-out: EC50
# Method: The following assay procedure describes the HBV antiviral assay, using HepG2.117 cells, which carry a stably integrated genotype D HBV genome under the control of a Tet-off promoter, and intracellular HBV DNA quantification as endpoint. Cell viability is assessed in parallel by measuring the intracellular ATP content using ATPlite (Perkin Elmer).
# On day 0, HepG2.117 cells (which are maintained in routine cell culture with doxycycline present in the medium at a final concentration of 1 μg/mL) were seeded in 96-well plates (white with clear bottom) at a density of 2.0×10^4 cells/well (0.1 mL/well) in medium without doxycycline to induce pgRNA transcription and subsequent formation of HBV particles. The cells were incubated at 37° C. and 5% CO2.
# On day 1, medium was removed from each well, the test articles were diluted in culture medium without doxcycyline and 100 μL was added to cell culture wells (9 concentrations, 4-fold dilution). For each plate, 6 untreated (merely DMSO) wells were included. The final concentration of DMSO in the culture medium was 2%. Each plate was prepared in duplicate (one for HBV DNA extraction, one for ATPlite measurement). The cells were incubated at 37° C. and 5% CO2 for 3 days.
# On day 4, cell viability was assessed using ATPlite and cell lysates were prepared for HBV DNA extraction and subsequent quantification by qPCR.
# Medium was removed from each well and 100 μL of 0.33% NP-40 in H2O was added to each well. Plates were sealed, incubated at 4° C. for 5 mins, vortexed extensively and centrifuged briefly. Next, 35 μL of lysate was added to 65 μL QuickExtract DNA Extraction Solution (Epicentre) in a PCR plate for each well. PCR plate was incubated at 65° C. for 6 mins, 98° C. for 2 mins and finally cooled to 4° C. HBV DNA was then quantified by qPCR with HBV-specific primers and probes as specified in Table 1 using the Bio-Rad SSOAdvanced Universal Probes Supermix on a CFX96 machine (Bio-Rad). The PCR cycle program consisted of 95° C. for 3 mins, followed by 40 cycles at 95° C. for 10 sec and 60° C. for 30 sec.
# A DNA standard was prepared by dilution of an IDT gBlock corresponding to the amplicon with concentrations ranging from 10^2 to 10^8 copies/input (i.e. per 4 μL) and used to generate a standard curve by plotting Cq values vs. HBV DNA standard concentration. The quantity of HBV DNA in each sample was determined by interpolating from the standard curve.
# Cell viability was calculated as follows: % Cell viability=(luminescence value of test sample)/(average luminescence value of 2% DMSO control)×100%. HBV DNA inhibition was calculated as follows: 100−(HBV DNA copy number of test sample)/(average HBV DNA copy number of 2% DMSO control)×100%. No normalization to entecavir was required due to the excellent dynamic window of this assay. The CC50, EC50 and EC90 values were determined by dose-response curves fitted using non-linear regression.
row,Compound,EC50 [nM]
1,"CC1Cn2c(c(C(=O)NCc3c(F)cccc3-c3nccc(N)n3)n(-c3ccc(OC4CC4)cc3)c2=O)CN1C(=O)c1ccc(Br)c(Cl)c1 (single isomer, unassigned) [Compound 31b]",< 50
2,"CC1Cn2c(c(C(=O)NCc3ccccc3-c3ccncn3)n(-c3ccc(N4CC5(CCN5C)C4)cc3)c2=O)CN1C(=O)c1ccc(Br)c(C(F)(F)F)c1 (single isomer, unassigned) [Compound 84b]",< 50
3,"COc1nccc(-c2ccccc2CNC(=O)c2c3n(c(=O)n2-c2ccc(OC4CC4)cc2)CC(C)N(C(=O)c2ccc(Br)c(C(F)(F)F)c2)C3)n1 (single isomer, unassigned) [Compound 38b]",< 50
4,"O=C(NCc1ccccc1-c1ncccn1)c1c2n(c(=O)n1-c1ccc(OC3CC3)cc1)CC(CN1CCOCC1)N(C(=O)c1ccc(Br)c(C(F)(F)F)c1)C2 (single isomer, unassigned) [Compound 132b]",500 to 5000
5,"CC1Cn2c(c(C(=O)NCc3ccccc3-c3ccncn3)n(-c3ccc(N4CCC5(CN(C)C5)C4)cc3)c2=O)CN1C(=O)c1ccc(Br)c(C(F)(F)F)c1 (single isomer, unassigned) [Compound 88b]",50 to 500
6,"CC1Cn2c(c(C(=O)NCc3c(F)cccc3-c3cccnn3)n(-c3ccc(OC4CC4)cc3)c2=O)CN1C(=O)c1ccc(Br)c(Cl)c1 (single isomer, unassigned) [Compound 49b]",50 to 500
7,"CC1Cn2c(c(C(=O)NCc3ccccc3-c3cccnn3)n(-c3ccc(N4CC5(CN(C)C5)C4)cc3)c2=O)CN1C(=O)c1ccc(Br)c(C(F)(F)F)c1 (single isomer, unassigned) [Compound 76b]",500 to 5000
8,"CC1Cn2c(c(C(=O)NCc3ccccc3-c3ccncn3)n(-c3ccc(N4CC5(CN(C)C5)C4)cc3)c2=O)CN1C(=O)c1ccc(Br)c(C(F)(F)F)c1 (single isomer, unassigned) [Compound 73b, (6S*)-7-[4-bromo-3-(trifluoromethyl)benzoyl]-6-methyl-2-(4-{6-methyl-2,6-diazaspiro[3.3]heptan-2-yl}phenyl)-3-oxo-N-{[2-(pyrimidin-4-yl)phenyl]methyl}-5H,6H,8H-imidazo[1,5-a]pyrazine-1-carboxamide]",50 to 500

# Same assay, conditions: Hepatitis B virus, HepG2.117, 72 h, HBV DNA inhibition, 3 days incubation, read-out: EC50
row,Compound,EC50 [nM]
1,"CC1Cn2c(c(C(=O)NCc3ccccc3-c3ncccn3)n(-c3ccc(N4CC5(CN(C)C5)C4)cc3)c2=O)CN1C(=O)c1ccc(Br)c(C(F)(F)F)c1 (single isomer, unassigned) [Compound 78a]",< 50
2,"CNc1nc2cc(-n3c(C(=O)NCc4ccccc4)c4n(c3=O)CCN(C(=O)c3ccc(Br)c(Cl)c3)C4)ccc2o1 [Compound 127, N-benzyl-7-(4-bromo-3-chloro-benzoyl)-2-[2-(methylamino)-1,3-benzoxazol-5-yl]-3-oxo-6,8-dihydro-5H-imidazo[1,5-a]pyrazine-1-carboxamide]",500 to 5000
3,"C[C@H](O)COc1ccc(-n2c(C(=O)NCc3ccccc3-c3ccncn3)c3n(c2=O)C[C@@H](C)N(C(=O)c2ccc(Br)c(C(F)(F)F)c2)C3)cc1 (mixture of isomers) [Compound 58a, (6RS)-7-[4-bromo-3-(trifluoromethyl)benzoyl]-2-[4-[(2S)-2-hydroxypropoxy]phenyl]-6-methyl-3-oxo-N-[(2-pyrimidin-4-ylphenyl)methyl]-6,8-dihydro-5H-imidazo[1,5-a]pyrazine-1-carboxamide]",50 to 500
4,"CC1Cn2c(c(C(=O)NCc3ccccc3-c3cc[nH]n3)n(-c3ccc(OC4CC4)cc3)c2=O)CN1C(=O)c1ccc(Br)c(Cl)c1 (single isomer, unassigned) [Compound 51a]",50 to 500
5,"Cc1nnc(-c2ccccc2CNC(=O)c2c3n(c(=O)n2-c2ccc(OC4CC4)cc2)CC(C)N(C(=O)c2ccc(Br)c(Cl)c2)C3)o1 (single isomer, unassigned) [Compound 1a, (S*)-7-(4-bromo-3-chlorobenzoyl)-2-(4-cyclopropoxyphenyl)-6-methyl-N-(2-(5-methyl-1,3,4-oxadiazol-2-yl)benzyl)-3-oxo-2,3,5,6,7,8-hexahydroimidazo[1,5-a]pyrazine-1-carboxamide]",50 to 500
6,"C[C@H](O)COc1ccc(-n2c(C(=O)NCc3ccccc3-c3cccnn3)c3n(c2=O)C[C@H](C)N(C(=O)c2ccc(Br)c(C(F)(F)F)c2)C3)cc1 (mixture of isomers) [Compound 57b, (6SR)-7-[4-bromo-3-(trifluoromethyl)benzoyl]-2-[4-[(2S)-2-hydroxypropoxy]phenyl]-6-methyl-3-oxo-N-[(2-pyridazin-3-ylphenyl)methyl]-6,8-dihydro-5H-imidazo[1,5-a]pyrazine-1-carboxamide]",50 to 500
7,"CC1Cn2c(c(C(=O)NCc3ccccc3-c3ccncn3)n(-c3ccc(N4CCC5(CC4)CN(C)C5)cc3)c2=O)CN1C(=O)c1ccc(Br)c(C(F)(F)F)c1 (single isomer, unassigned) [Compound 80a]",50 to 500
8,"CC1Cn2c(c(C(=O)NCc3ccccc3-n3cc(F)cn3)n(-c3ccc(N4CCO[C@H](C)C4)cc3)c2=O)CN1C(=O)c1ccc(Br)c(Cl)c1 (stereo in doubt) [Compound 14a, (6R*)-7-(4-bromo-3-chloro-benzoyl)-N-[[2-(4-fluoropyrazol-1-yl)phenyl]methyl]-6-methyl-2-[4-[(2R)-2-methylmorpholin-4-yl]phenyl]-3-oxo-6,8-dihydro-5H-imidazo[1,5-a]pyrazine-1-carboxamide]",50 to 500
9,"CC1Cn2c(c(C(=O)NCc3c(F)cccc3-c3cccc(N)n3)n(-c3ccc(OC4CC4)cc3)c2=O)CN1C(=O)c1ccc(Br)c(Cl)c1 (single isomer, unassigned) [Compound 35a]",50 to 500
10,"C[C@@H](O)COc1ccc(-n2c(C(=O)NCc3ccccc3-c3ccccn3)c3n(c2=O)C[C@H](C)N(C(=O)c2ccc(Br)c(C(F)(F)F)c2)C3)cc1 (mixture of isomers) [Compound 60b, (6SR)-7-[4-bromo-3-(trifluoromethyl)benzoyl]-2-[4-[(2R)-2-hydroxypropoxy]phenyl]-6-methyl-3-oxo-N-[[2-(2-pyridyl)phenyl]methyl]-6,8-dihydro-5H-imidazo[1,5-a]pyrazine-1-carboxamide]",< 50
11,"O=C(NCc1ccccc1)c1c2n(c(=O)n1-c1ccc(OC3CC(O)C3)cc1)CCN(C(=O)c1ccc(Br)c(Cl)c1)C2 (centres unmarked) [Compound 129, N-benzyl-7-(4-bromo-3-chloro-benzoyl)-2-[4-(3-hydroxycyclobutoxy)phenyl]-3-oxo-6,8-dihydro-5H-imidazo[1,5-a]pyrazine-1-carboxamide]",50 to 500
12,"C[C@H]1Cn2c(c(C(=O)NCc3ccccc3-c3ncccn3)n(-c3ccc(N4CC5(CN(C)C5)C4)cc3)c2=O)CN1C(=O)c1ccc(Br)c(C(F)(F)F)c1 (racemic) [Compound 78b, rac-(6S)-7-[4-bromo-3-(trifluoromethyl)benzoyl]-6-methyl-2-[4-(6-methyl-2,6-diazaspiro[3.3]heptan-2-yl)phenyl]-3-oxo-N-[(2-pyrimidin-2-ylphenyl)methyl]-6,8-dihydro-SH-imidazo[1,5-a]pyrazine-1-carboxamide]",50 to 500
13,"O=C(NCc1ccccc1-c1ncccn1)c1c2n(c(=O)n1-c1ccc(OC3CC3)cc1)C[C@@H](COCc1ccccc1)N(C(=O)c1ccc(Br)c(C(F)(F)F)c1)C2 (stereo in doubt) [Compound 130, 6-(benzyloxymethyl)-7-[4-bromo-3-(trifluoromethyl)benzoyl]-2-[4-(cyclopropoxy)phenyl]-3-oxo-N-[(2-pyrimidin-2-ylphenyl)methyl]-6,8-dihydro-5H-imidazo[1,5-a]pyrazine-1-carboxamide]",500 to 5000
14,"CC1Cn2c(c(C(=O)NCc3ccccc3-c3ccncn3)n(-c3ccc(OC[C@@H](O)C(F)(F)F)cc3)c2=O)CN1C(=O)c1ccc(Br)c(C(F)(F)F)c1 (single isomer, unassigned) [Compound 62a]",< 50
15,"O=C(NCc1ccccc1)c1c2n(c(=O)n1-c1ccc(N3CC4CC[C@@H]3CO4)cc1)CCN(C(=O)c1ccc(Br)c(Cl)c1)C2 (single isomer, unassigned) [Compound 125b]",50 to 500

# — patent US11845752B2, “Substituted imidazo[1,5-a]pyrazines for the treatment of hepatitis B” (ALIGOS THERAPEUTICS, INC., priority 2020, dated 2023)
